This is an account of results in patent US7101906B2, “2,3,4-substituted cyclopentanones as therapeutic agents” (Allergan, Inc., priority 2004, dated 2006).

The subject of data set [1] is cynomolgus monkeys. The data set can be described thus: Intraocular pressure in cynomolgus monkeys. Type of data set: in vivo. As to conditions: monkey, 0.03% topical, single dose, 2-24 h. The method, then: (§1) Intraocular pressure studies in dogs involved pneumatonometry performed in conscious, Beagle dogs of both sexes (10–15 kg). The animals remained conscious throughout the study and were gently restrained by hand. Drugs were administered topically to one eye as a 25 μL volume drop, the other eye received 25 μL vehicle (0.1% polysorbate 80:10 mM TRIS) as a control. Proparacaine (0.1%) was used for corneal anesthesia during tonometry.
An analogous procedure was carried out with cynomolgus monkeys with measurements at 2, 4, 6, and 24 hours after a single dose.

The subject of data set [2] is Beagle dogs. The data set can be described thus: Intraocular pressure in dogs (pneumatonometry). Type of data set: in vivo. Conditions: dog, 0.03% topical 25 μL drop to one eye, 5 day study. Here is the method: as §1
Intraocular pressure was determined just before drug administration and at 2, 4 and 6 hr thereafter on each day of the 5 day study. Drug was administered immediately after the first IOP reading.

Data set [3] deals with Beagle dogs. Briefly: Ocular surface hyperemia in dogs. The data set is classed as in vivo. As to conditions: dog, 0.03% topical; score 0.5 trace, 1 mild, 2 moderate, 3 severe. Here is the method:
Ocular surface hyperemia was visually assessed and scored according to a system typically used clinically.
Ocular surface hyperemia was evaluated at the same time points as intraocular pressure measurement. It should be noted that untreated dog eyes frequently have a pink/red tone. Thus, values of trace or even mild are not necessarily out of the normal range.

Data set [4] has as its target T1, HEP3D (Homo sapiens, UniProt P43115).
T1 sequence (P43115 1-374 isoform P43115-4): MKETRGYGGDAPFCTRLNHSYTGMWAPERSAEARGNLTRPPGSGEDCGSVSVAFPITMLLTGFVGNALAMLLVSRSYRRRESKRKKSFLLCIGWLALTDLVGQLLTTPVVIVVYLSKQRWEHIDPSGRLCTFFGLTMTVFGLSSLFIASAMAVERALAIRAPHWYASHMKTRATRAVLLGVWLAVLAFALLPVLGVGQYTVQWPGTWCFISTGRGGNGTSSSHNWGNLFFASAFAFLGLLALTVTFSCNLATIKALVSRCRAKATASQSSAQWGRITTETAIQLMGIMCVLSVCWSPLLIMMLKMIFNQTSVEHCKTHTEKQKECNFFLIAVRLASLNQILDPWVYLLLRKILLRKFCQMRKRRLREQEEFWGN
The data set can be described thus: Radioligand binding, EP3 receptor. As to conditions: competition vs [3H]PGE2 5 nM. The method, then:
(§2) HEK-293 cells stably expressing the human or feline FP receptor, or EP1, EP2, or EP4 receptors were washed with TME buffer, scraped from the bottom of the flasks, and homogenized for 30 sec using a Brinkman PT 10/35 polytron. TME buffer was added to achieve a final 40 ml volume in the centrifuge tubes (the composition of TME is 100 mM TRIS base, 20 mM MgCl2, […]; 10N HCl is added to achieve a pH of 7.4).
(§3) The cell homogenate was centrifuged at 19000 r.p.m. for 20 min at 4° C. using a Beckman Ti-60 rotor. The resultant pellet was resuspended in TME buffer to give a final 1 mg/ml protein concentration, as determined by Biorad assay. Radioligand binding competition assays vs. [^3H-]17-phenyl PGF2α (5 nM) were performed in a 100 μl volume for 60 min. Binding reactions were started by adding plasma membrane fraction. The reaction was terminated by the addition of 4 ml ice-cold TRIS-HCl buffer and rapid filtration through glass fiber GF/B filters using a Brandel cell harvester. The filters were washed 3 times with ice-cold buffer and oven dried for one hour. Non-specific binding was determined with 10 uM unlabeled 17-phenyl PGF2α.
(§4) [^3H-] PGE2 (5 nM; specific activity 180 Ci mmol) was used as the radioligand for EP receptors. […] Non-specific binding determined with 10^−5M of unlabeled PGE2.

In data set [5] the target is T2, HEP2 (Homo sapiens, UniProt P43116).
T2 construct: expressed in transfected cells; membrane fraction
T2 sequence (P43116 whole entry): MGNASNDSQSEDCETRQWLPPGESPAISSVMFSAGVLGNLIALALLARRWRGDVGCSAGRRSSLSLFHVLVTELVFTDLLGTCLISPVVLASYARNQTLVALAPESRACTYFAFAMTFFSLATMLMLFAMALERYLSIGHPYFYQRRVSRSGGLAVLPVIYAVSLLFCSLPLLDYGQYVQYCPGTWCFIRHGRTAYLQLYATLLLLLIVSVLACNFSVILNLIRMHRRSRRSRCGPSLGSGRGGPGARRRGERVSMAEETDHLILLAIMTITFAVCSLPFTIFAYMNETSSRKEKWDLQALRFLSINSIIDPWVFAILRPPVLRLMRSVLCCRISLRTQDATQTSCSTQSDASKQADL
The data set can be described thus: Radioligand binding, EP2 receptor. Conditions: competition vs [3H]PGE2 5 nM, HEK-293 cell membranes. The method, then: as §2, §3, §4

Data set [6] addresses T3, HEP4 (Homo sapiens, UniProt P35408).
T3 construct: expressed in transfected cells; membrane fraction
The data set can be described thus: Radioligand binding, EP4 receptor. As to conditions: competition vs [3H]PGE2 5 nM, HEK-293 cell membranes. The method, then: as §2, §3
[^3H-] PGE2 (5 nM; specific activity 180 Ci mmol) was used as the radioligand for EP receptors. Binding studies employing EP1, EP2, EP3, EP4 were performed in duplicate in at least three separate experiments. A 200 μl assay volume was used. Incubations were for 60 min at 25° C. and were terminated by the addition of 4 ml of ice-cold 50 mM TRIS-HCl, followed by rapid filtration through Whatman GF/B filters and three additional 4 ml washes in a cell harvester (Brandel). Non-specific binding determined with 10^−5M of unlabeled PGE2.

In data set [7] the target is T4, hEP4/Gqs5 (Homo sapiens, UniProt P35408).
T4 construct: expressed in transfected cells
T4 sequence (P35408 whole entry): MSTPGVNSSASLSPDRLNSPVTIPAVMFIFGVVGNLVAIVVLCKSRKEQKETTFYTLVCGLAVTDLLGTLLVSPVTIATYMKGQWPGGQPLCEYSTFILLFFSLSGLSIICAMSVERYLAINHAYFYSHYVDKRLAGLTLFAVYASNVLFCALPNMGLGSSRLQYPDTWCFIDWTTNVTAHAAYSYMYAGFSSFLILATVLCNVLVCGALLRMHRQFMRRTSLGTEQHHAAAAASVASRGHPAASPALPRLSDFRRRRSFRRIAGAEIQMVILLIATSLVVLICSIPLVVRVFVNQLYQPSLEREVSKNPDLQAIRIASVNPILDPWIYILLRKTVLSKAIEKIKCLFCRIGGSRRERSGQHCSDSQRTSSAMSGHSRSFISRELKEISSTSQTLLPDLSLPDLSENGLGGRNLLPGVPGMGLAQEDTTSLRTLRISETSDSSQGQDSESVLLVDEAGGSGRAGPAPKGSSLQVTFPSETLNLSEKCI
The data set can be described thus: FLIPR calcium signal, hEP4/Gqs5. The data set is classed as cell-based. Conditions: HEK-293(EBNA) cells, read-out: Functional EC50 (nM) HEP4. Here is the method:
(§5) HEK-293(EBNA) cells, stably expressing one type or subtype of recombinant human prostaglandin receptors (prostaglandin receptors expressed: hDP/Gqs5; hEP1; hEP2/Gqs5; hEP3A/Gqi5; hEP4/Gqs5; hFP; hIP; hTP), were cultured in 100 mm culture dishes in high-glucose DMEM medium containing 10% fetal bovine serum, 2 mM 1-glutamine, 250 μg/ml geneticin (G418) and 200 μg/ml hygromycin B as selection markers, and 100 units/ml penicillin G, 100 μg/ml streptomycin and 0.25 μg/ml amphotericin B.
(§6) Cells were seeded at a density of 5×10^4 cells per well in Biocoat® Poly-D-lysine-coated black-wall, clear-bottom 96-well plates (Becton-Dickinson) and allowed to attach overnight in an incubator at 37° C. Cells were then washed two times with HBSS-HEPES buffer (Hanks Balanced Salt Solution without bicarbonate and phenol red, 20 mM HEPES, pH 7.4) using a Denley Cellwash plate washer (Labsystems). After 45 minutes of dye-loading in the dark, using the calcium-sensitive dye Fluo-4 AM at a final concentration of 2 μM, plates were washed four times with HBSS-HEPES buffer to remove excess dye leaving 100 μl in each well. Plates were re-equilibrated to 37° C. for a few minutes.
(§7) Cells were excited with an Argon laser at 488 nm, and emission was measured through a 510–570 nm bandwidth emission filter (FLIPR™, Molecular Devices, Sunnyvale, Calif.). Drug solution was added in a 50 μl volume to each well to give the desired final concentration. The peak increase in fluorescence intensity was recorded for each well. On each plate, four wells each served as negative (HBSS-HEPES buffer) and positive controls (standard agonists: BW245C (hDP); PGE2 (hEP1; hEP2/Gqs5; hEP3A/Gqi5; hEP4/Gqs5); PGF2α (hFP); carbacyclin (hIP); U-46619 (hTP), depending on receptor). The peak fluorescence change in each drug-containing well was then expressed relative to the controls.
(§8) Compounds were tested in a high-throughput (HTS) or concentration-response (CoRe) format. In the HTS format, forty-four compounds per plate were examined in duplicates at a concentration of 10^−5 M. To generate concentration-response curves, four compounds per plate were tested in duplicates in a concentration range between 10^−5 and 10^−11 M. The duplicate values were averaged. In either, HTS or CoRe format each compound was tested on at least 3 separate plates using cells from different passages to give an n≧3.

For data set [8], the target named is T5, hTP (Homo sapiens, UniProt P21731).
T5 construct: expressed in transfected cells
T5 sequence (P21731 1-343): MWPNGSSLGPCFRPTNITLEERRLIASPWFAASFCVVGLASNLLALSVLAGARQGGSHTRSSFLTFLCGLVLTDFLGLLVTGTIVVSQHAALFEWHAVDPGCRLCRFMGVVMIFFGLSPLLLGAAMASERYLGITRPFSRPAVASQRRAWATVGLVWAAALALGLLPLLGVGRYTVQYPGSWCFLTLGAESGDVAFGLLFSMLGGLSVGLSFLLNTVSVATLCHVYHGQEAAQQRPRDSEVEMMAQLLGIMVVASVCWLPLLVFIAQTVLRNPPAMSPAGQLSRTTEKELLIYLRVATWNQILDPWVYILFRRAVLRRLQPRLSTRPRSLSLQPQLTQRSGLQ
Briefly: FLIPR calcium signal, hTP. The data set is classed as cell-based. Conditions: HEK-293(EBNA) cells, read-out: Functional EC50 (nM) HTP. Here is the method:
as §5, §6, §7, §8

For data set [9], the target named is T6, hEP3A/Gqi5 (Homo sapiens, UniProt P43115).
T6 construct: expressed in transfected cells
T6 sequence (P43115 1-390): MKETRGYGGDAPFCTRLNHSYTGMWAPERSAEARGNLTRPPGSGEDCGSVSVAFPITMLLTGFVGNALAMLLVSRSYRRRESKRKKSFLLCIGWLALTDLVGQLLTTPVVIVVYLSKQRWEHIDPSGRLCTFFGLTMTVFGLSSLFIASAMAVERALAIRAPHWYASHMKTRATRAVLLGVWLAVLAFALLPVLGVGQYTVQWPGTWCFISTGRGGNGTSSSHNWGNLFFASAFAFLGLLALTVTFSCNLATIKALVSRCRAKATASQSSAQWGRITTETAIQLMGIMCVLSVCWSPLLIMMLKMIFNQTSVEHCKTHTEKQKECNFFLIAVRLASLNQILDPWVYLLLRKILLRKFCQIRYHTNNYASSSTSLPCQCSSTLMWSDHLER
The data set can be described thus: FLIPR calcium signal, hEP3A/Gqi5. Type of data set: cell-based. Conditions: HEK-293(EBNA) cells, read-out: Functional EC50 (nM) HEP3A. Here is the method: as §5, §6, §7, §8

T3 sequence (P35408 whole entry): as the sequence (P35408 whole entry) above

`CC(C)OC(=O)CCC/C=C\C[C@H]1C(=O)CC[C@@H]1/C=C/C(O)CCc1sc2ccccc2c1Cl` (single isomer, unassigned) [Compound 16b]: the figures for the “Max. ΔIOP (mm Hg)” value in data set [1] and in data set [2] were −3.4 mm Hg and −5.7 mm Hg, respectively. Further, the Max hyperemia in data set [3] turned out to be 0.9.
The matching figures for `CC(C)OC(=O)CCC/C=C\C[C@H]1C(=O)CC[C@@H]1/C=C/C(O)CCc1sc2ccccc2c1Cl` (single isomer, unassigned) [Compound 16c]: −7.8 mm Hg, −4.8 mm Hg and 1.0.
As to `O=C(O)CCC/C=C\C[C@H]1C(=O)CC[C@@H]1/C=C/C(O)CCc1sc2ccccc2c1Cl` (stereo partly drawn) [drawing 40], the IC50 (in general, the concentration that inhibits the measured activity by half) in data set [4] is 6000 nM; in [5] it was above 10000 nM; in data set [6] it was 150 nM. Besides, in data set [7], the EC50 (as a rule, the midpoint of the concentration-response curve) was 11 nM.
`O=C(O)CCC/C=C\C[C@H]1C(=O)CC[C@@H]1/C=C/C(O)CCc1sc2ccccc2c1Cl` (stereo partly drawn) [drawing 41]: the values for the IC50 in data set [4] and in data set [6] were 3700 nM and 110 nM, respectively. The EC50 in data set [8] is above 10000 nM; in data set [9], above 10000 nM; in data set [7], 25 nM.
